pEC50: −log10 of the molar value. *1 amine or outer side, *2 acyl side, *3 side chain or, on linkers, in order; H or OH if unused. Where a SMILES comes first, the peptide text is derived from it. Side-chain parts run from the residue outwards. [ ]: non-standard residue; d: D form. The star is where a group is joined. C20 diacid = O=C(O)CCCCCCCCCCCCCCCCCCC(=O)*; γGlu = O=C(O)[C@H](CCC(=O)[*:2])N[*:1]; Dap = NC[C@H](N)C(=O)O; AEEA = NCCOCCOCC(=O)O; Aib = CC(C)(N)C(=O)O

The target in one test is T1, human GLP-1 R (Homo sapiens, UniProt P43220).
T1 construct: expressed in transfected cells
In words: Human GLP-1 receptor (GLP-1 R) activity assay, cAMP induction (AlphaScreen) in HEK293 cells. As to conditions: Table 3; most comprehensive data; read-out: hGLP-1-R cAMP EC50 average value. Format: cell-based. In a few lines:
(§1)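 Stable HEK293 clones expressing human GIP R or GLP-1 R, seeded 1 day before; cells washed in Tyrode's buffer (10 mM HEPES, pH 7.4), stimulated, then lysed. cAMP measured by AlphaScreen bead competition (1 h, room temperature, dark). EC50 = concentration giving half-maximal cAMP elevation, from curves of absolute cAMP (nM) vs log concentration.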

A further test deals with T2, human GIP R (Homo sapiens, UniProt P48546).
T2 construct: expressed in transfected cells
T2 sequence (P48546 22-466): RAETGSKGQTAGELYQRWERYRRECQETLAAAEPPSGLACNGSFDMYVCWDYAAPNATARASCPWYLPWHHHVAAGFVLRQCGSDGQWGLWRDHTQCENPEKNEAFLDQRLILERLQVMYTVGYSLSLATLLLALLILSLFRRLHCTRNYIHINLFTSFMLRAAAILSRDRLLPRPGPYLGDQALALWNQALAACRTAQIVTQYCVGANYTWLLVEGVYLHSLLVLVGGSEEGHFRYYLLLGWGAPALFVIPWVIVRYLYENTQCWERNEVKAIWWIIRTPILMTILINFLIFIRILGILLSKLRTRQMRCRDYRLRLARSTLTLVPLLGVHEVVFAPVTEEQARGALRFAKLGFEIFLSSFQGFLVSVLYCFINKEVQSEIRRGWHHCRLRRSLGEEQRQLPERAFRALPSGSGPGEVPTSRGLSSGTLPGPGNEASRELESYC
The test is described as follows: Human GIP receptor (GIP R) activity assay, cAMP induction (AlphaScreen) in HEK293 cells. The note with it: Table 3; most comprehensive data; read-out: hGIP-R cAMP EC50 average value. It counts as cell-based. In a few lines:
as §1

T1 sequence (P43220 24-463): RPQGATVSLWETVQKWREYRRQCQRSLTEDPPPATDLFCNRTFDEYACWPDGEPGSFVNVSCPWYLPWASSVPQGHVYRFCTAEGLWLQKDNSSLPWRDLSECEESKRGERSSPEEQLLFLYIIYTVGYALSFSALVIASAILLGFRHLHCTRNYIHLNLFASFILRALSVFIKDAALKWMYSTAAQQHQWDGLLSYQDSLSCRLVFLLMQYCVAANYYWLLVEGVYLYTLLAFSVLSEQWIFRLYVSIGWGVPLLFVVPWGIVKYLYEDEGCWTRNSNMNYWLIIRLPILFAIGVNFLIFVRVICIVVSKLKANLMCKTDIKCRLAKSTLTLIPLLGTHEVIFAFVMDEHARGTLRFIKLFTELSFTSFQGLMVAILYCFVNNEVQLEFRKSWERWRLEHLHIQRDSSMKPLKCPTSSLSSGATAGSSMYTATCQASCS

Turning to `CC[C@H](C)[C@H](NC(=O)[C@H](CO)NC(=O)[C@H](Cc1ccc(O)cc1)NC(=O)[C@H](CC(=O)O)NC(=O)[C@H](CO)NC(=O)[C@@H](NC(=O)[C@H](Cc1ccccc1)NC(=O)[C@@H](NC(=O)CNC(=O)[C@H](CCC(=O)O)NC(=O)C(C)(C)NC(=O)[C@@H](N)Cc1ccc(O)cc1)[C@@H](C)O)[C@@H](C)O)C(=O)N[C@@H](Cc1ccc(O)cc1)C(=O)N[C@@H](CC(C)C)C(=O)N[C@@H](CC(=O)O)C(=O)N[C@@H](CCCCN)C(=O)N[C@@H](CCCCNC(=O)COCCOCCNC(=O)COCCOCCNC(=O)[C@H](CN)NC(=O)CCCCCCCCCCCCCCCCCCC(=O)O)C(=O)N[C@@H](C)C(=O)N[C@@H](CCC(N)=O)C(=O)N[C@@H](CCCNC(=N)N)C(=O)N[C@@H](C)C(=O)N[C@@H](Cc1ccccc1)C(=O)N[C@H](C(=O)N[C@@H](CCC(=O)O)C(=O)N[C@@H](Cc1c[nH]c2ccccc12)C(=O)N[C@@H](CC(C)C)C(=O)N[C@@H](CC(C)C)C(=O)N[C@@H](C)C(=O)N[C@@H](CCC(N)=O)C(=O)NCC(=O)N1CCC[C@H]1C(=O)N[C@@H](CO)C(=O)N[C@@H](CO)C(=O)NCC(=O)N[C@@H](C)C(=O)N1CCC[C@H]1C(=O)N1CCC[C@H]1C(=O)N1CCC[C@H]1C(=O)N[C@@H](CO)C(N)=O)C(C)C` [Compound 37] (H-Y[Aib]EGTFTSDYSIYLDKK([AEEA-AEEA-Dap-C20 diacid])AQRAFVEWLLAQGPSSGAPPPS-NH2), the negative logarithm of the EC50 (pEC50) on human GLP-1 R was 10.85; at human GIP R it was 10.77.
Turning to `CC[C@H](C)[C@H](NC(=O)[C@H](CO)NC(=O)[C@H](Cc1ccc(O)cc1)NC(=O)[C@H](CC(=O)O)NC(=O)[C@H](CO)NC(=O)[C@@H](NC(=O)[C@H](Cc1ccccc1)NC(=O)[C@@H](NC(=O)CNC(=O)[C@H](CCC(=O)O)NC(=O)C(C)(C)NC(=O)[C@@H](N)Cc1ccc(O)cc1)[C@@H](C)O)[C@@H](C)O)C(=O)N[C@@H](C)C(=O)N[C@@H](CC(C)C)C(=O)N[C@@H](CC(=O)O)C(=O)N[C@@H](CCCCN)C(=O)N[C@@H](CCCCNC(=O)COCCOCCNC(=O)COCCOCCNC(=O)CC[C@H](NC(=O)CCCCCCCCCCCCCCCCCCC(=O)O)C(=O)O)C(=O)N[C@@H](C)C(=O)N[C@@H](CCC(N)=O)C(=O)N[C@@H](CCCNC(=N)N)C(=O)N[C@@H](C)C(=O)N[C@@H](Cc1ccccc1)C(=O)N[C@H](C(=O)N[C@@H](CCC(=O)O)C(=O)N[C@@H](Cc1c[nH]c2ccccc12)C(=O)N[C@@H](CC(C)C)C(=O)N[C@@H](CC(C)C)C(=O)N[C@@H](C)C(=O)N[C@@H](CCC(N)=O)C(=O)N[C@@H](CCCCN)C(=O)N1CCC[C@H]1C(=O)N[C@@H](CO)C(=O)N[C@@H](CO)C(=O)NCC(=O)N[C@@H](C)C(=O)N1CCC[C@H]1C(=O)N1CCC[C@H]1C(=O)N1CCC[C@H]1C(=O)N[C@@H](CO)C(N)=O)C(C)C` [Compound 38] (H-Y[Aib]EGTFTSDYSIALDKK([AEEA-AEEA-γGlu-C20 diacid])AQRAFVEWLLAQKPSSGAPPPS-NH2), the values for the pEC50 on human GLP-1 R and on human GIP R were 10.92 and 11.30, respectively.
Taken in the same sequence, the figures for `CC[C@H](C)[C@H](NC(=O)[C@H](CO)NC(=O)[C@H](Cc1ccc(O)cc1)NC(=O)[C@H](CC(=O)O)NC(=O)[C@H](CO)NC(=O)[C@@H](NC(=O)[C@H](Cc1ccccc1)NC(=O)[C@@H](NC(=O)CNC(=O)[C@H](CCC(=O)O)NC(=O)[C@@H](C)NC(=O)[C@@H](N)Cc1ccc(O)cc1)[C@@H](C)O)[C@@H](C)O)C(=O)N[C@@H](C)C(=O)N[C@@H](CC(C)C)C(=O)N[C@@H](CC(=O)O)C(=O)N[C@@H](CCCCN)C(=O)N[C@@H](CCCCNC(=O)COCCOCCNC(=O)COCCOCCNC(=O)CC[C@H](NC(=O)CCCCCCCCCCCCCCCCCCC(=O)O)C(=O)O)C(=O)N[C@@H](C)C(=O)N[C@@H](CCC(N)=O)C(=O)N[C@@H](CCCNC(=N)N)C(=O)N[C@@H](C)C(=O)N[C@@H](Cc1ccccc1)C(=O)N[C@H](C(=O)N[C@@H](CCC(=O)O)C(=O)N[C@@H](Cc1c[nH]c2ccccc12)C(=O)N[C@@H](CC(C)C)C(=O)N[C@@H](CC(C)C)C(=O)N[C@@H](C)C(=O)N[C@@H](CCC(N)=O)C(=O)N[C@@H](CCCCN)C(=O)N1CCC[C@H]1C(=O)N[C@@H](CO)C(=O)N[C@@H](CO)C(=O)NCC(=O)N[C@@H](C)C(=O)N1CCC[C@H]1C(=O)N1CCC[C@H]1C(=O)N1CCC[C@H]1C(=O)N[C@@H](CO)C(N)=O)C(C)C` [Compound 39] (H-Y[dA]EGTFTSDYSIALDKK([AEEA-AEEA-γGlu-C20 diacid])AQRAFVEWLLAQKPSSGAPPPS-NH2) were 11.22 and 10.96.
For `CC[C@H](C)[C@H](NC(=O)[C@H](CO)NC(=O)[C@H](Cc1ccc(O)cc1)NC(=O)[C@H](CC(=O)O)NC(=O)[C@H](CO)NC(=O)[C@@H](NC(=O)[C@H](Cc1ccccc1)NC(=O)[C@@H](NC(=O)CNC(=O)[C@H](CCC(=O)O)NC(=O)C(C)(C)NC(=O)[C@@H](N)Cc1ccc(O)cc1)[C@@H](C)O)[C@@H](C)O)C(=O)N[C@@H](C)C(=O)N[C@@H](CC(C)C)C(=O)N[C@@H](CC(=O)O)C(=O)N[C@@H](CCCCN)C(=O)N[C@@H](CCCCNC(=O)COCCOCCNC(=O)COCCOCCNC(=O)CC[C@H](NC(=O)CCCCCCCCCCCCCCCCCCC(=O)O)C(=O)O)C(=O)N[C@@H](C)C(=O)N[C@@H](CCC(N)=O)C(=O)N[C@@H](CCCNC(=N)N)C(=O)N[C@@H](C)C(=O)N[C@@H](Cc1ccccc1)C(=O)N[C@H](C(=O)N[C@@H](CCC(=O)O)C(=O)N[C@@H](Cc1c[nH]c2ccccc12)C(=O)N[C@@H](CC(C)C)C(=O)N[C@@H](CC(C)C)C(=O)N[C@@H](C)C(=O)N[C@@H](C)C(=O)N1CCC[C@H]1C(=O)N[C@@H](CO)C(=O)N[C@@H](CO)C(=O)NCC(=O)N[C@@H](C)C(=O)N1CCC[C@H]1C(=O)N1CCC[C@H]1C(=O)N1CCC[C@H]1C(=O)N[C@@H](CO)C(N)=O)C(C)C` [Compound 40] (H-Y[Aib]EGTFTSDYSIALDKK([AEEA-AEEA-γGlu-C20 diacid])AQRAFVEWLLAAPSSGAPPPS-NH2), the values for the negative logarithm of the EC50 (pEC50) on human GLP-1 R and at human GIP R were 10.68 and 10.64, respectively.
`CC[C@H](C)[C@H](NC(=O)[C@H](CO)NC(=O)[C@H](Cc1ccc(O)cc1)NC(=O)[C@H](CC(=O)O)NC(=O)[C@H](CO)NC(=O)[C@@H](NC(=O)[C@H](Cc1ccccc1)NC(=O)[C@@H](NC(=O)CNC(=O)[C@H](CCC(=O)O)NC(=O)C(C)(C)NC(=O)[C@@H](N)Cc1ccc(O)cc1)[C@@H](C)O)[C@@H](C)O)C(=O)N[C@@H](C)C(=O)N[C@@H](CC(C)C)C(=O)N[C@@H](CC(=O)O)C(=O)N[C@@H](CCCCN)C(=O)N[C@@H](CCCCNC(=O)COCCOCCNC(=O)COCCOCCNC(=O)CC[C@H](NC(=O)CCCCCCCCCCCCCCCCCCC(=O)O)C(=O)O)C(=O)N[C@@H](C)C(=O)N[C@@H](C)C(=O)N[C@@H](CCCCN)C(=O)N[C@@H](CCC(=O)O)C(=O)N[C@@H](Cc1ccccc1)C(=O)N[C@H](C(=O)N[C@@H](CCC(=O)O)C(=O)N[C@@H](Cc1c[nH]c2ccccc12)C(=O)N[C@@H](CC(C)C)C(=O)N[C@@H](CC(C)C)C(=O)N[C@@H](CO)C(=O)N[C@@H](C)C(=O)NCC(=O)N1CCC[C@H]1C(=O)N[C@@H](CO)C(=O)N[C@@H](CO)C(=O)NCC(=O)N[C@@H](C)C(=O)N1CCC[C@H]1C(=O)N1CCC[C@H]1C(=O)N1CCC[C@H]1C(=O)N[C@@H](CO)C(N)=O)C(C)C` [Compound 41] (H-Y[Aib]EGTFTSDYSIALDKK([AEEA-AEEA-γGlu-C20 diacid])AAKEFVEWLLSAGPSSGAPPPS-NH2): the negative logarithm of the EC50 (pEC50) on human GLP-1 R was 10.42; at human GIP R, 10.82.
Regarding `CC[C@H](C)[C@H](NC(=O)[C@H](CO)NC(=O)[C@H](Cc1ccc(O)cc1)NC(=O)[C@H](CC(=O)O)NC(=O)[C@H](CO)NC(=O)[C@@H](NC(=O)[C@H](Cc1ccccc1)NC(=O)[C@@H](NC(=O)CNC(=O)[C@H](CCC(=O)O)NC(=O)C(C)(C)NC(=O)[C@@H](N)Cc1ccc(O)cc1)[C@@H](C)O)[C@@H](C)O)C(=O)N[C@@H](C)C(=O)N[C@@H](CC(C)C)C(=O)N[C@@H](CC(=O)O)C(=O)N[C@@H](CCCCN)C(=O)N[C@@H](CCCCNC(=O)COCCOCCNC(=O)COCCOCCNC(=O)CC[C@H](NC(=O)CCCCCCCCCCCCCCCCCCC(=O)O)C(=O)O)C(=O)N[C@@H](C)C(=O)N[C@@H](CCC(N)=O)C(=O)N[C@@H](CCCNC(=N)N)C(=O)N[C@@H](C)C(=O)N[C@@H](Cc1ccccc1)C(=O)N[C@H](C(=O)N[C@@H](CCC(=O)O)C(=O)N[C@@H](Cc1c[nH]c2ccccc12)C(=O)N[C@@H](CC(C)C)C(=O)N[C@@H](CC(C)C)C(=O)N[C@@H](C)C(=O)N[C@@H](CCC(N)=O)C(=O)NCC(=O)N1CCC[C@H]1C(=O)N[C@@H](CO)C(=O)N[C@@H](CO)C(=O)NCC(=O)N[C@@H](C)C(=O)N1CCC[C@H]1C(=O)N1CCC[C@H]1C(=O)N1CCC[C@H]1C(=O)N[C@@H](CO)C(N)=O)C(C)C` [Compound 42] (H-Y[Aib]EGTFTSDYSIALDKK([AEEA-AEEA-γGlu-C20 diacid])AQRAFVEWLLAQGPSSGAPPPS-NH2), the values for the pEC50 on human GLP-1 R and at human GIP R were 10.77 and 11.05, respectively.

For the origin of these results see US10093713B2, “GIP-GLP-1 dual agonist compounds and methods” (priority 2013, dated 2018).
